# Starred links: 1 amine or outer side, 2 acyl side, 3 side chain; linkers in the order of their positions; H or OH if unused. Positions of bridges follow the written chain, without caps; N, C: chain ends. Non-standard residues stand in square brackets, D forms with d. Residues, ends and D or L forms follow the SMILES beside them. ξ: configuration not given here. ξOrn(4,5-diOH) = O=C(C(CC(O)C(O)N[*:3])N[*:1])[*:2]; ξhTyr(βξ-OH,γξ-OH) = NC(C(=O)O)C(O)C(O)c1ccc(O)cc1; X1 = NC(=O)CC(O)C(N[*:1])C(=O)[*:2]; X2 = O=C(C1C(O)CCN1[*:1])[*:2]; Hyp = O=C(O)[CH]1C[CH](O)CN1
# System: Candida albicans
# Assay: Candida albicans bioassay
# Assay type: cell-based
# Conditions: bioassay used to monitor HPLC fractions
# Method: In carrying out the reaction, Compound A, either as a purified compound or as a partially purified sample obtained from the deacylation of Compound B, is dissolved in dry dimethylformamide and the resulting solution intimately contacted with RCOX. The order of addition is not critical. The resulting mixture is stirred at room temperature for about 16 to 20 hours (conveniently overnight) whereupon a reaction takes place with the formation of Compound I. At the end of this period, the dimethylformamide is removed by concentrating in vacuo at 40°C and the resulting residue triturated, preferably sequentially, twice with ether, and then filtered. The filter cake product is generally a free flowing solid and is purified by reverse phase HPLC, typically in 0.5 gram aliquots employing acetonitrile/water as eluting agent. Fractions containing the purified product as determined by C. albicans assay, by U.V. or by refractive index are combined and first concentrated under reduced pressure and then lyophilized to separate the product.
smiles,measurement,value
"CC(O)C1NC(=O)C(N)CC(O)C(O)NC(=O)C2C(O)CCN2C(=O)C(C(O)CC(N)=O)NC(=O)C(C(O)C(O)c2ccc(O)cc2)NC(=O)C2CC(O)CN2C1=O (stereo not drawn) [non-acylated cyclohexapeptide compound] (H-[ξOrn(4,5-diOH)]T[Hyp][ξhTyr(βξ-OH,γξ-OH)][X1][X2]; lactam 1-C; configuration not given here)",activity against Candida albicans,inactive
